Key:
[1] = Biological activity of chosen Compound 1 formulations
From the text: The pH was adjusted if needed.

(NZB×NZW)F1 female mice = assay: Lupus symptoms in SLE-prone (NZB×NZW)F1 female mice; assay type: in vivo, mouse
Experimental: The same batch of drug substance was used in this study and in the first Phase I clinical trial with Compound 1. The mice were followed for anti-dsDNA antibodies and for proteinuria. When the mice were sacrificed, the intensity of ICD was determined in kidneys.

[2] = tested on: PBL of SLE patients stimulated with phytohemagglutinin (PHA); assay: Proliferation of PBL stimulated with mitogen PHA; assay type: cell-based, human; conditions: PHA 2 μg/ml; PBL of one SLE patient, FIG. 9
Experimental: To this end the peptides hCDR1 or hCDR3 were added to cultures of PBL of SLE patients that were stimulated with the mitogen phytohemagglutinin (PHA, 2 μg/ml).

[3] = tested on: IL-2 secretion by PBL of SLE patients; assay: Inhibition of IL-2 secretion by PBL stimulated with human 16/6Id mAb (CTLL line); assay type: cell-based
Experimental: It was of interest to find out whether the hCDR peptides are capable of inhibiting IL-2 secretion by PBL of SLE patients following stimulation with the human 16/6Id mAb. […] To this end, PBL of SLE patients were incubated with the human 16/6Id mAb in the absence or presence of the peptides hCDR1 or hCDR3. Supernatants of the cultures were collected following 48 hours of incubation. Assays to determine levels of IL-2 in the supernatants were performed using the CTLL IL-2 dependent line. Briefly, cells of the CTLL line (2×10^4/well) were incubated in the presence of the different supernatants for 24 hours, followed by the addition of ^3H-thymidine for an additional 18-hour incubation period. Cells were then harvested and radioactivity counted using a β-counter. Results were calculated based on recombinant human IL-2 used as a standard. The ability of the peptides to inhibit the IL-2 secretion of PBL of 23 responders stimulated by the human 16/6 Id was tested. […] Inhibition of proliferative responses of PBL directly correlated with IL-2 inhibition by the CDR-based peptides.

[4] = tested on: Compound 1 reference standard (RS) specific T-cells; assay: Inhibition of IL-2 secretion from T-cells of immunized mice after s.c. treatment (ELISA); assay type: in vivo
From the text: The biological activity was monitored by inhibition of IL-2 secretion from Compound 1 reference standard (RS) specific T-cells following subcutaneous (s.c.) treatment with the lyophilized compound solution, i.e. the drug product (DP), at two concentrations. The results of the treatment are compared to those of treating mice with Compound 1 (RS) in phosphate buffered saline (PBS).

SLE subjects [5] = assay: Phase Ia clinical study, single s.c. dose, tolerability and safety; assay type: in vivo, human
Experimental: Thirty-six (36) subjects participated in the study. To be eligible for inclusion in the study, SLE patients must have fulfilled at least four criteria used for the diagnosis of lupus by the American College of Rheumatology. Patients must also have had stable, mild/moderate disease and score less than or equal to 10 on the SLE Disease Activity Index, SLEDAI. […] A standard battery of safety tests, including blood and urine collection for laboratory tests, was performed at screening, during the day of dosing, at 24 hours post-dose and at 2, 4 and 8 weeks following dosing. Prior to dosing, and on scheduled follow-up visits, blood samples were withdrawn for SLE-related immunological tests, anti-Compound 1 antibodies and PBL proliferation assay. […] The following safety parameters were assessed at Screening, during the hospitalization and at follow-up visits including Termination visit: vital signs (systolic blood pressure, diastolic blood pressure, pulse, oxygen saturation, temperature and weight), 12-lead ECG, change in physical examination and clinical routine laboratory safety tests. Adverse events were recorded at the Dosing Day and at each visit thereafter. SLE-related immunological tests were performed at Screening, during the hospitalization and at follow-up visits including Termination visit. […] Disease activity assessment using the SLE disease activity index score, year 2000 updated (SLEDAI 2K) was assessed at Screening, during the hospitalization and at follow-up visits including Termination visit.

SLE subjects [6] = assay: Phase Ib clinical study, multiple s.c. doses, tolerability and safety; assay type: in vivo, human; conditions: multiple s.c. doses of 0.5, 1 or 2.5 mg in 120 mg Captisol®, 12 injections in 4 weeks
Experimental: This study is being performed in order to evaluate the safety and tolerability of repeated Compound 1 sc administration to SLE subjects. […] Subjects are monitored on planned visits scheduled at 2, 4, 8 and 12 weeks after start of dosing. Safety and tolerability are evaluated using tests similar to those described in the Phase Ia Clinical Study above.

[7] = treated 50 μg/mouse s.c., activator Compd. 1 RS 5 μg/ml
[8] = treated 50 μg/mouse s.c., activator Compd. 1 RS 10 μg/ml
[9] = treated 50 μg/mouse s.c., activator Compd. 1 RS 25 μg/ml
[10] = treated 50 μg/mouse s.c., activator Compd. 1 RS 50 μg/ml
[11] = treated 50 μg/mouse s.c., activator Compd. 1 RS 100 μg/ml
[12] = treated 50 μg/mouse s.c., activator Compd. 1 RS […]
[13] = treated 200 μg/mouse s.c., activator Compd. 1 RS 5 μg/ml
[14] = treated 200 μg/mouse s.c., activator Compd. 1 RS 10 μg/ml
[15] = treated 200 μg/mouse s.c., activator Compd. 1 RS 25 μg/ml
[16] = treated 200 μg/mouse s.c., activator Compd. 1 RS 50 μg/ml
[17] = treated 200 μg/mouse s.c., activator Compd. 1 RS 100 μg/ml
[18] = single s.c. 0.5, 1 or 2.5 mg in Captisol®

H-GYYWSWIRQPPGKGEEWIG-OH [Compound 1]
biological activity ([1]; 30% (w/w) PEG 400 formulation): inactive
biological activity ([1]; formulations with acetate buffer and citrate buffer (Mannitol as tonicity agent)): active
biological activity ([1]; the two cyclodextrin formulations (Hydroxypropyl-β-cyclodextrin, Captisol)): equal to the activity of the peptide alone
Mean Proteinuria ± SEM ((NZB×NZW)F1 female mice; 25 μg/mouse s.c. once a week in Captisol®, 5 weeks following treatment initiation): 0.16 ± 0.05 g/L
Mean Proteinuria ± SEM ((NZB×NZW)F1 female mice; 25 μg/mouse s.c. once a week in Captisol®, 7 weeks following treatment initiation): 1.26 ± 1.09 g/L
Mean Proteinuria ± SEM ((NZB×NZW)F1 female mice; 25 μg/mouse s.c. once a week in Captisol®, 8 weeks following treatment initiation): 0.5 ± 0.31 g/L
Mean Proteinuria ± SEM ((NZB×NZW)F1 female mice; 25 μg/mouse s.c. once a week in Captisol®, 10 weeks following treatment initiation): 0.56 ± 0.3 g/L
Mean Proteinuria ± SEM ((NZB×NZW)F1 female mice; 50 μg/mouse s.c. once a week in Captisol®, 5 weeks following treatment initiation): 0.75 ± 0.3 g/L
Mean Proteinuria ± SEM ((NZB×NZW)F1 female mice; 50 μg/mouse s.c. once a week in Captisol®, 7 weeks following treatment initiation): 0.81 ± 0.3 g/L
Mean Proteinuria ± SEM ((NZB×NZW)F1 female mice; 50 μg/mouse s.c. once a week in Captisol®, 8 weeks following treatment initiation): 1.09 ± 0.4 g/L
Mean Proteinuria ± SEM ((NZB×NZW)F1 female mice; 50 μg/mouse s.c. once a week in Captisol®, 10 weeks following treatment initiation): 1.29 ± 0.3 g/L
ICD (Immune Complex Deposits) intensity, Mean ± SEM ((NZB×NZW)F1 female mice; 50 μg/mouse, kidneys at sacrifice, scale 0 = none, 1 = moderate, 2 = severe, 3 = severe/extremely intense): 1.90 ± 0.23
levels of dsDNA-specific antibodies versus control ((NZB×NZW)F1 female mice; 25 or 50 μg/mouse, after 10 treatment injections): no significant differences
intensity of immune complex deposits in kidney sections versus control group ((NZB×NZW)F1 female mice; either dose level (25 or 50 μg/mouse), FIG. 6): much lower
inhibition of proliferative responses to mitogen PHA [2]: could not inhibit
patients whose PBL IL-2 secretion was inhibited / tested ([3]; 23 responders): 21/23
Maximum inhibition % ([3]; IL-2 secretion with 16/6 Id alone = 100%): 84 ± 31%
Inhibitory Activity* % (patients with inhibition of 50% or more) ([3]; PBL of 23 responders): 91 (21/23) %
inhibition of IL-2 secretion ([3]; PBL of one SLE patient, FIG. 12): 100%
Average inhibition (%) (at the range of 5-100 μg/ml) ([4]; treated 50 μg/mouse s.c.): 45.6%
IL-2 secretion ([4]; treated 50 μg/mouse s.c., activator Compd. 1 RS 0 μg/ml): BQL
IL-2 secretion ([4]; treated 50 μg/mouse s.c., activator Compd. 1 RS 0.5 μg/ml): 9 pg/mL
IL-2 secretion ([4]; treated 50 μg/mouse s.c., activator Compd. 1 RS 1 μg/ml): BQL
% inhib. of IL-2 secretion [4, 7]: 55%
IL-2 secretion [4, 7]: 9 pg/mL
% inhib. of IL-2 secretion [4, 8]: 38%
IL-2 secretion [4, 8]: 16 pg/mL
% inhib. of IL-2 secretion [4, 9]: 48%
IL-2 secretion [4, 9]: 15 pg/mL
% inhib. of IL-2 secretion [4, 10]: 47%
IL-2 secretion [4, 10]: 21 pg/mL
% inhib. of IL-2 secretion [4, 11]: 41%
IL-2 secretion [4, 11]: 25 pg/mL
% inhib. of IL-2 secretion [4, 12]: 51%
IL-2 secretion [4, 12]: 8 pg/mL
IL-2 secretion ([4]; treated 50 μg/mouse s.c., activator Con A […]): 6,215 pg/ml
Average inhibition (%) (at the range of 5-100 μg/ml) ([4]; treated 200 μg/mouse s.c.): 60.4%
IL-2 secretion ([4]; treated 200 μg/mouse s.c., activator Compd. 1 RS 0 μg/ml): BQL
IL-2 secretion ([4]; treated 200 μg/mouse s.c., activator Compd. 1 RS 0.5 μg/ml): 10 pg/mL
IL-2 secretion ([4]; treated 200 μg/mouse s.c., activator Compd. 1 RS 1 μg/ml): BQL
% inhib. of IL-2 secretion [4, 13]: 60%
IL-2 secretion [4, 13]: 8 pg/mL
% inhib. of IL-2 secretion [4, 14]: 58%
IL-2 secretion [4, 14]: 11 pg/mL
% inhib. of IL-2 secretion [4, 15]: 63%
IL-2 secretion [4, 15]: 11 pg/mL
% inhib. of IL-2 secretion [4, 16]: 62%
IL-2 secretion [4, 16]: 15 pg/mL
% inhib. of IL-2 secretion [4, 17]: 58%
IL-2 secretion [4, 17]: 18 pg/mL
IL-2 secretion ([4]; treated 200 μg/mouse s.c., activator Compd. 1 RS […]): BQL
IL-2 secretion ([4]; treated 200 μg/mouse s.c., activator Con A […]): 5,403 pg/ml
QTc change from baseline (SLE subjects [5]; [18]): no QTc change from baseline>60 msec
categorical ECG measurements and digitized ECG parameters versus placebo (SLE subjects [5]; [18]): No differences of clinical significance
hematology, biochemistry or urinalysis values (SLE subjects [5]; [18]): No clinically significant effect
incidence of AEs versus placebo (SLE subjects [5]; [18]): no prominent difference
physical exam (SLE subjects [5]; [18]): No clinically significant effects
serious or severe adverse events (SLE subjects [5]; [18]): No serious adverse event (SAE) or AE classified as severe occurred
temperature and weight (SLE subjects [5]; [18]): No clinically significant effect
vital signs (systolic, diastolic blood pressure, pulse, oxygen saturation) (SLE subjects [5]; [18]): No clinically significant effect
immunological response to tetanus toxoid (TTX) recall antigen (SLE subjects [5]; single s.c. dose in Captisol®): did not change
safety and tolerability (SLE subjects [5]; single s.c. dose of 0.5, 1 or 2.5 mg in 120 mg Captisol®): safe and well tolerated
safety and tolerability (SLE subjects [6]): safe and well tolerated

— US20130023485A1, “PARENTERAL FORMULATIONS OF PEPTIDES FOR THE TREATMENT OF SYSTEMATIC LUPUS ERYTHEMATOSUS” (Teva Pharmaceutical Industries, Ltd., priority 2003, published 2013)
